# In US9814726B2, “Composition for preventing or treating fatty liver diseases” (LG CHEM, LTD., priority 2014, dated 2017):
# How the values were obtained:
# ob/ob mice with MCD diet = assay: Steatohepatitis model accompanying obesity: ob/ob mice with MCD (methionine choline-deficient) diet; format: in vivo, mouse
# [1] = tested on: C57BL/6J Lep(−/−) male (ob/ob) mice; assay: Obese fatty liver model: ob/ob mice on normal chow diet, oral treatment for 4 weeks, liver and serum analysis; format: in vivo, mouse
# Description: As experimental animals, 6-week-old male ob/+ mouse for control, and 6-week-old C57BL/6J Lep(−/−) male (ob/ob) mice were purchased from Harlan (Indianapolis, Ind.). The purchased mice were maintained under standard condition (25° C., 55% humidity and 12-hour light periodicity) with normal chow diet. 30 mice were divided into 3 groups, 10 mice in each group. Group 1 included 10 C57BL/6J(ob/+ control group) mice, Group 2 was vehicle-treated 10 ob/ob mice treated with saline solution, and Group 3 was a group in which (tetrahydropyran-4-yl)-[2-phenyl-5-(1,1-dioxo-thiomorpholin-4-yl)methyl-1H-indol-7-yl]amine (LG Life Sciences Ltd., Daejeon, Republic of Korea) was treated once a day by 20 mg/kg dosage. Saline solution and (tetrahydropyran-4-yl)-[2-phenyl-5-(1,1-dioxo-thiomorpholin-4-yl)methyl-1H-indol-7-yl]amine solution were orally administered for 4 weeks. After treatment, animals were anesthetized and sacrificed, and livers were rapidly taken and stored for the next analysis. […]
# [2] = 20 mg/kg/day, vs vehicle-treated group, FIG. 5A/5B
# [3] = ob/ob mice, 20 mg/kg/day, FIG. 2
# [4] = ob/ob mice, oral 20 mg/kg once a day, 4 weeks, p<0.001 vs vehicle
# [5] = ob/ob mice, oral 20 mg/kg once a day, 4 weeks, vs vehicle
smiles,measurement,setting,value
"O=S1(=O)CCN(Cc2cc(NC3CCOCC3)c3[nH]c(-c4ccccc4)cc3c2)CC1 [Comp., (tetrahydropyran-4-yl)-[2-phenyl-5-(1,1-dioxo-thiomorpholin-4-yl)methyl-1H-indol-7-yl]amine]",amount of ALT in blood serum,ob/ob mice with MCD diet; 20 mg/kg/day,remarkably decreased
same,amount of AST in blood serum,ob/ob mice with MCD diet; 20 mg/kg/day,remarkably decreased
same,liver TG amount,"ob/ob mice with MCD diet; 20 mg/kg/day (vehicle 400+/−80), FIG. 5C",210+/−20 mg/g liver
same,"phosphorylation of fibrosis markers (NF-γB p65, NF-κB p105, p38 and JNK 1/2)","ob/ob mice with MCD diet; 20 mg/kg/day, FIG. 5D",inhibited
same,decrease of liver TG amount,"ob/ob mice with MCD diet; 20 mg/kg/day, vs vehicle, FIG. 5C",about 50%
same,expression of collagen I (liver fibrosis),ob/ob mice with MCD diet; [2],inhibited
same,intensity of trichrome staining (liver fibrosis),ob/ob mice with MCD diet; [2],inhibited
same,"activation of the mitochondrial respiration chain complexes I, III, IV and V","[1]; ob/ob mice liver, 20 mg/kg/day, FIG. 3",meaningfully increased
same,"OXPHOS complexes I, III, IV and V by BN-PAGE: binding between the complexes","[1]; ob/ob mice treated for 4 weeks, 20 mg/kg/day",enhanced
same,"amount of TBARS (oxidative stress, lipid oxidation)",[1]; [3],significant decrease
same,level of 3-NT (nitrotyrosine) in liver,[1]; [3],considerably decreased
same,amount of TNF-alpha in minced liver samples (ELISA),"[1]; ob/ob mice, 20 mg/kg/day, FIG. 4B",significantly low amount
same,"expression of liver mitochondrial complex I, III, IV and V","[1]; ob/ob mice, 20 mg/kg/day, compared with ob/+ control group, FIG. 3A",remained up to the level of the control group
same,expression of mRNA of TNF-α in the liver,"[1]; ob/ob mice, 20 mg/kg/day, vs vehicle",inhibited
same,amount of IL-6 mRNA,"[1]; ob/ob mice, 20 mg/kg/day, vs vehicle group",no difference
same,number of 8-OHdG positive liver cells (DNA damage by oxidative stress),"[1]; ob/ob mice, 20 mg/kg/day, vs vehicle, FIG. 2",remarkably low
same,"phosphorylation of NF-κB p65, NF-κB p105, p38 and JNK 1/2 in liver (immunoblotting)","[1]; ob/ob mice, 20 mg/kg/day, vs vehicle, FIG. 4A",significantly decreased
same,inflammation reaction: infiltration of activated macrophages in liver (immune staining of F4/80 and Cd68),"[1]; ob/ob mice, 20 mg/kg/day, vs vehicle, FIG. 4C and 4D",decreased
same,fatty tissue in liver (H&E staining),"[1]; ob/ob mice, oral 20 mg/kg once a day, 4 weeks, FIG. 1",remarkably decreased
same,TG level in the blood serum,"[1]; ob/ob mice, oral 20 mg/kg once a day, 4 weeks, between groups (data not shown)",did not show much difference
same,amount of liver TG,[1]; [4],significant decrease
same,amount of liver cholesterol,[1]; [4],significant decrease
same,ALT value in blood serum,[1]; [5],decreased
same,AST value in blood serum,[1]; [5],decreased
same,Oil-Red O stained area in liver,"[1]; ob/ob mice, oral 20 mg/kg once a day, 4 weeks, vs vehicle-treated group",remarkably decreased
